Reference: patent US20050282818A1, “Ubiquitin ligase inhibitors” (Rigel Pharmaceuticals, Inc., priority 2004, published 2005)
Read-outs that look alike come from different tables or passages of the source.

Legend:
[1] = biological target: APC11/APC2 (Homo sapiens, UniProt Q9NYG5+Q9UJX6); assay: APC-11/APC-2 ligase assay (APC auto ubiquitination); assay type: biochemical; settings: APC assay
Procedure: For the assays described below, the TRAF6/Uev1A/UBC13 assay is the biochemical plate-based assay of TRAF6 ligase activity using Ubc13 as the E2 enzyme. The gel-based assay is the biochemical solution-based TRAF6 ligase assay (by SDS-PAGE and Western blot) to confirm the plate-based ELISA assay. The APC assay is an assay which is another E3 ligase (APC2/APC11) biochemical assay.
E3 (His APC11/APC2— “APC”) auto ubiquitination was measured as described in U.S. patent application Ser. No. 09/826,312 (Publication No. U.S. 2002 0042083 A1), which is incorporated by reference in its entirety. Details of the protocol are described below. Activity in the presence of the compound was determined relative to a parallel control in which only DMSO was added. Values of the IC50 were typically determined using 6 or 8 different concentrations of the compound, although as few as 2 concentrations may be used to approximate the IC50 value.
Nickel coated 96 well plates (Pierce 15242) were blocked for 1 hour with 100 μl of blocking buffer at room temperature. The plates were washed 4 times with 225 μl of 1 […]PBS and 80 μl of the reaction buffer were added that contained 100 ng/well of Flag ubiquitin. To this, 10 μl of the test compound diluted in DMSO were added. After the test compound was added, 10 μl of E1 (human), E2 (Ubch5c), and APC in Protein Buffer was added to obtain a final concentration of 5 ng/well of E1, 20 ng/well of E2 and 100 ng/well of APC. The plates were shaken for 10 minutes and incubated at room temperature for 1 hour. After incubation, the plates were washed 4 times with 225 μl of 1×PBS and 100 μl/well of Antibody Mix were added to each well. The plates were incubated at room temperature for another hour after which they were washed 4 times with 225 μl of 1×PBS and 100 μl/well of Lumino substrate were added to each well. The luminescence was measured by using a BMG luminescence microplate reader. The Blocking Buffer (1% Casein in 1×PBS) was stored at 4° C. until use.
The reaction buffer consisted of 62.5 mM Tris pH 7.6 (Trizma Base—Sigma T 8524), 3 mM MgCl2 (Magnesium Chloride—Sigma M 2393), 1 mM DTT (Sigma D 9779), 2.5 mM ATP (Roche Boehringer Mann Corp. 635 316), 100 ng/well of Flag ubiquitin, 0.1% BSA (Sigma A 7906), and 0.05% Tween 20 (Sigma P 7949).
The Protein Buffer consisted of 20 mM Tris pH 7.6, 10% glycerol (Sigma G 5516) and 1 mM DTT.
The antibody mix consisted of 0.25% BSA (Sigma A 7906) in 1×PBS, 1/50,000 anti Flag (Sigma F 3165), 1/100,000 of anti Mouse IgG HRP (Jackson Imrunoresearch #115 035 146).
The substrate mix consisted of SuperSignal Substrate from Pierce (catalog number 37070ZZ) and was prepared by mixing 100 ml of the peroxide solution, 100 ml of the enhancer solution and 100 ml of Milli Q® water.

[2] = test system: ICAM-1 expression in A549 cells; assay: ICAM assay (IL-1 induced ICAM-1/CD54 expression in A549 cells); assay type: cell-based, human; settings: Homo sapiens, A549, ICAM assay
Excerpt: The expression of intercellular adhesion molecule (ICAM)-1 in endothelial cells is pivotal in supporting lymphocyte migration across the vascular endothelium. TNF/IL-1 induces the NF-kB pathway in which NF-kB acts as a transcription factor and activation of NF-kB induces ICAM expression. IkB inhibits NF-KB by binding to it and retaining NF-kB in the cytoplasm. Upon cytokine stimulation, several signaling molecule including TRAF6, IKKs, and TAK1 are activated which lead to the phosphorylation of IkB. Phosphorylated IkB is then ubiquitinated by the SCF complex and degraded by proteasome, thereby releasing NF-kB to translocate into the nucleus. In the nucleus, NF-kB binds to DNA and activates transcription of various genes that are involved in inflammation, cell survival, and apoptosis. The ICAM assay is a primary assay for HTS as well as a cell based assay for TRAF6 inhibitors.
The following materials are used 96-well plates; F12K complete medium that includes 10% FBS and 1% P/S (penicillin/streptomycin); 1×PBS; 5 ug/ml IL-1, Human CD54 (CALTAG Laboratory, Cat#MHCD5400-4); anti-mouse-IgG (Jackson Lab, Cat#115-035 146); and A549 cells.
Procedure. 10,000 A549 cells/well were seeded in 100 μl F12K complete medium in a 96-well white plate. The seeded plate was incubate at 37° C. incubator in 5% CO2 overnight. After the overnight incubation, 4 μl of diluted test compound was added and incubated for 1 hour at 37° C. After the 1 hour incubation, 4 μl of 25 ng/ml IL-1 was added to each well and the cells were stimulated at 37° C. for 4 hours.
After stimulation, the cells were stained with CD54 (1:1000 diluted with medium) and anti-mouse IgG (1:1100 diluted with medium) for 1 hour. Subsequently, the medium was removed and each well was washed with 200 μl of PBS three times. Detection of activity was performed by addition of 100 μl/well of lumino substrate.

[3] = biological target: T1, TRAF6/Uev1A/Ubc13 (Homo sapiens, UniProt Q9Y4K3); assay: TRAF6/Uev1A/Ubc13 plate-based ubiquitin ligase assay; assay type: biochemical
T1 sequence (Q9Y4K3 1-522): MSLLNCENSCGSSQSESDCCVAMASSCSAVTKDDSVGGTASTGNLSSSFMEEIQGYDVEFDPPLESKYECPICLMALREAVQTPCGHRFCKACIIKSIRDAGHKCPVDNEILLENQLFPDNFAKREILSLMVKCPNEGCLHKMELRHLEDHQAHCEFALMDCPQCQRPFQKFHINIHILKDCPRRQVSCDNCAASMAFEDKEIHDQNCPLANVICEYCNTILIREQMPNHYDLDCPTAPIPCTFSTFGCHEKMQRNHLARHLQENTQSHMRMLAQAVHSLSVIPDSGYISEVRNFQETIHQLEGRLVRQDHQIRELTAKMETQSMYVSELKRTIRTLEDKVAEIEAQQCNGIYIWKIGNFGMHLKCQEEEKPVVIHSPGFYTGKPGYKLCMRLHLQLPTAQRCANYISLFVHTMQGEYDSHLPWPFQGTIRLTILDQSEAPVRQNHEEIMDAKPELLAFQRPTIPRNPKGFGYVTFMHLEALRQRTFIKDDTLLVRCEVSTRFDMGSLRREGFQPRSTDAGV
Procedure, shortened: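 Ligase activity was read as luminescence from anti-Flag/HRP detection of Flag-ubiquitin bound to casein-blocked Ni-plates alongside His-ubiquitin after a 1 h room-temperature reaction. Buffer: 62.5 mM Tris pH 7.5, 6.25 mM MgCl2, 1.0 mM DTT, 2 μM ATP; E1, Uev1a/Ubc13 and TRAF6 added last to start. IC50s derived across compound concentrations.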

[4] = test system: H1299 cells; assay: Cell proliferation PAD assay, H1299; assay type: cell-based; settings: Homo sapiens, 48 hours
Procedure, shortened: (§1)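 2,000 cells/well; compound added at 24 h (duplicate, 6.3-fold series, 10 mM stock, 500× dilution into wells); 48 h, 37 °C/5% CO2. Formamide fix, DAPI stain, image-based counts of live (proliferation), apoptotic, dead cells.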

[5] = test system: A549 cells; assay: Cell proliferation PAD assay, A549; assay type: cell-based; settings: Homo sapiens, 48 hours
Procedure, shortened: as §1

[6] = NCI-H1299, 6pt, read-out: H1299 6pt
[7] = NCI-H1299, 3pt, read-out: H1299 3pt

APC11/APC2, sequence (Q9NYG5 whole entry): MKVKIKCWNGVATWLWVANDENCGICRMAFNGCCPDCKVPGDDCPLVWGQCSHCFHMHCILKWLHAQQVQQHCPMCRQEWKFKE
APC11/APC2, sequence (Q9UJX6 whole entry): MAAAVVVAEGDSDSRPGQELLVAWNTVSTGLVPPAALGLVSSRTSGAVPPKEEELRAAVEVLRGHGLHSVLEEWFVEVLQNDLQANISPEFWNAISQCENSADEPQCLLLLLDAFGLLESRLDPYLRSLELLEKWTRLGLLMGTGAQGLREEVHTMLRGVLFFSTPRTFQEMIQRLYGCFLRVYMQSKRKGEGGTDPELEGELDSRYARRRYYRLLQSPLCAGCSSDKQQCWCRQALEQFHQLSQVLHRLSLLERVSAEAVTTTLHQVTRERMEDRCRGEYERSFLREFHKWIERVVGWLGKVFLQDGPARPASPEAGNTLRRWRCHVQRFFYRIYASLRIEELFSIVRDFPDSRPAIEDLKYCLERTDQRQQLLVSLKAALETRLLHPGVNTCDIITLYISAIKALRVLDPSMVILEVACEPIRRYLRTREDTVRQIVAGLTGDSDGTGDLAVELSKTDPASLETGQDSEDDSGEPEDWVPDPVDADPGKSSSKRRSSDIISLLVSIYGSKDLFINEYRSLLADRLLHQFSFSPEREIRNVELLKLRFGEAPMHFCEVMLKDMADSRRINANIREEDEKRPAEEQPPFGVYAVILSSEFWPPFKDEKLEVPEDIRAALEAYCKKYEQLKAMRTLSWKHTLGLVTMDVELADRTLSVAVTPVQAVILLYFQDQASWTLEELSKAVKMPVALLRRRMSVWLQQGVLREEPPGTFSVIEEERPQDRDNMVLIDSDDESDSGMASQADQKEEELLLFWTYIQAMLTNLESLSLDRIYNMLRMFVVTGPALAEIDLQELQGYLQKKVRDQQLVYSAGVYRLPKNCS

Structure (SMILES) | IC50 [1] [µM] | IC50 [2] [µM] | IC50 [3] [µM] | IC50 [4, 6] [µM] | IC50 ([5]; 6pt, read-out: A549 6pt) [µM] | IC50 [4, 7] [µM] | IC50 ([5]; 3pt, read-out: A549 3pt) [µM]
O=S(=O)(Nc1ccc2[nH]ccc2c1)c1ccc(Cl)c2nonc12 [compound 363, 7-chloro-N-(1H-indol-5-yl)-2,1,3-benzoxadiazole-4-sulfonamide] | ≥ 20 | 1 to 20 | ≥ 20 |  |  |  | 
O=C(O)c1ccc(NS(=O)(=O)c2ccc(Cl)c3nonc23)cc1 [compound 399, 4-(7-chloro-2,1,3-benzoxadiazole-4-sulfonamido)benzoic acid] | ≥ 20 | ≥ 20 | ≥ 20 |  |  |  | 
CC(=O)Nc1ccc(-c2ccc(C(C)(C)C)cc2)c2nonc12 [compound 453, N-(7-(4-t-butylphenyl)-2,1,3-benzoxadiazol-4-yl)acetamide] | 1 to 20 | ≥ 20 | ≥ 20 |  |  |  | 
O=S(=O)(c1c(Cl)cc(Cl)c2nonc12)N1CCOCC1 [compound 411, 5,7-dichloro-4-{(morpholin-4-yl)sulfonyl}-2,1,3-benzoxadiazole] | ≥ 20 | 1 to 20 | 1 to 20 |  |  |  | 
N#Cc1cccnc1N1CCN(S(=O)(=O)c2c(Sc3cccc4cccnc34)ccc3nonc23)CC1 [compound 183, 2-(4-{[5-(quinolin-8-ylthio)-2,1,3-benzoxadiazol-4-yl]sulfonyl}piperazin-1-yl)nicotinonitrile] | 1 to 20 |  | 1 to 20 |  |  |  | 
O=S(=O)(c1c(Cl)ccc2nonc12)N1CCN(c2ccc(Cl)c(C(F)(F)F)c2)CC1 [compound 182, 5-chloro-4-({4-[4-chloro-3-(trifluoromethyl)phenyl]piperazin-1-yl}sulfonyl)-2,1,3-benzoxadiazole] |  | ≥ 20 | ≥ 20 | 1 to 20 | 1 to 20 |  | 
O=[N+]([O-])c1ccc(N2CCN(c3cnccn3)CC2)c2nonc12 [compound 84] | 1 to 20 |  | 1 to 20 |  |  |  | 
Cc1ccc(Sc2ccc([N+](=O)[O-])c3nonc23)cc1 [compound 157, 4-[(4-methylphenyl)thio]-7-nitro-2,1,3-benzoxadiazole] | 1 to 20 |  | 1 to 20 |  |  |  | 
O=[N+]([O-])c1ccc(Sc2cccc(Cl)c2)c2nonc12 [compound 149, 4-[(3-chlorophenyl)thio]-7-nitro-2,1,3-benzoxadiazole] | 1 to 20 |  | 1 to 20 |  |  |  | 
O=S(=O)(c1c(Cl)ccc2nonc12)N1CCC(Oc2ccccc2C(F)(F)F)CC1 [compound 229, 5-chloro-4-({4-[2-(trifluoromethyl)phenoxy]piperidin-1-yl}sulfonyl)-2,1,3-benzoxadiazole] |  | ≥ 20 | 1 to 20 | < 1 | 1 to 20 |  | 

Next, values leading:

IC50 [1] [µM] | IC50 [2] [µM] | IC50 [3] [µM] | IC50 [4, 6] [µM] | IC50 ([5]; 6pt, read-out: A549 6pt) [µM] | IC50 [4, 7] [µM] | IC50 ([5]; 3pt, read-out: A549 3pt) [µM] | Structure (SMILES)
≥ 20 | ≥ 20 | 1 to 20 |  |  |  |  | COC(=O)c1ccc(Cl)cc1Nc1ccc(S(=O)(=O)Nc2cc(Cl)ccc2C(=O)OC)c2nonc12 [compound 361, methyl 4-chloro-2-(7-[N-{5-chloro-2-(methoxycarbonyl)phenyl}sulfamoyl]-2,1,3-benzoxadiazol-4-ylamino)benzoate]
≥ 20 | ≥ 20 | ≥ 20 |  |  |  |  | O=[N+]([O-])c1c(N2CCCCC2)cc(-c2ccc(C(F)(F)F)cc2)c2nonc12 [compound 431, 7-(4-[trifluoromethyl]phenyl)-4-nitro-5-(piperidin-1-yl)-2,1,3-benzoxadiazole]
 | ≥ 20 | 1 to 20 | < 1 | < 1 |  |  | O=[N+]([O-])c1ccc([S+]([O-])c2cccc3cccnc23)c2nonc12 (centres unmarked) [compound 291, 8-[(7-nitro-2,1,3-benzoxadiazol-4-yl)sulfinyl]quinoline]
 | ≥ 20 | ≥ 20 |  |  | 1 to 20 | 1 to 20 | CN1CCN(S(=O)(=O)c2ccc(Cl)c3nonc23)CC1 [compound 189, 4-chloro-7-[(4-methylpiperazin-1-yl)sulfonyl]-2,1,3-benzoxadiazole]
1 to 20 |  | 1 to 20 |  |  |  |  | O=c1[nH]c2ccccc2n1C1CCN(S(=O)(=O)c2ccc(Sc3cccc4cccnc34)c3nonc23)CC1 [compound 190, 1-(1-{[7-(quinolin-8-ylthio)-2,1,3-benzoxadiazol-4-yl]sulfonyl}piperidin-4-yl)-1,3-dihydro-2H-benzimidazol-2-one]
 | ≥ 20 | ≥ 20 | 1 to 20 | 1 to 20 |  |  | O=S(=O)(c1ccc(Cl)c2nonc12)N1CCN(CCOCCO)CC1 [compound 185, 2-(2-{4-[(7-chloro-2,1,3-benzoxadiazol-4-yl)sulfonyl]piperazin-1-yl}ethoxy)ethanol]
 | ≥ 20 | 1 to 20 | 1 to 20 | 1 to 20 |  |  | O=S(=O)(c1ccc(Sc2cccc3cccnc23)c2nonc12)N1CCN(c2ccccc2)CC1 [compound 217, 8-({7-[(4-phenylpiperazin-1-yl)sulfonyl]-2,1,3-benzoxadiazol-4-yl}thio)quinoline]
 | ≥ 20 | ≥ 20 |  |  | 1 to 20 | 1 to 20 | O=S(=O)(c1c(Cl)ccc2nonc12)N1CCC(Oc2ncccn2)CC1 [compound 234]
